In patent publication US20090238810A1, “OPHTHALMIC COMPOSITION” (Menicon Co., Ltd., priority 2006, published 2009):

Tests used:
[1] = tested on: corneal epithelium of DE mice; assay: Corneal fluorescein staining in experimental mouse model of dry eye (DE mice); type: in vivo, C57BL/6J mice
Method: (§1) C57BL/6J mice aged 10 to 12 weeks were used for studies. All the studies were performed in accordance with the ARVO Statement for the Use of Animals in Ophthalmic and Vision Research.
(§2) The mice were subcutaneously injected with 0.5 mg/0.2 ml of scopolamine hydrobromide four times a day for 5 days. Desiccating environmental stress was created by placing a mouse cage in a blower hood with continuous air flow blower (room temperature of […] and relative humidity of 60%±10%). Tear production of each mouse was evaluated before the treatment, and also evaluated on third and fifth days of the treatment.
(§3) During the desiccation treatment, one of the eyes of each mouse was treated with eye drops including ApoA1 (Sigma-Aldrich, Japan) or with eye drops including ApoA1 and D-pantethine (Sigma-Aldrich, Japan), while PBS was administrated to the other eye of each mouse as a control. 5 μl of the respective eye drops was administered four times a day during the desiccation treatment for five days. All the ophthalmic compositions were formulated in PBS, and the osmolarity and the pH value of the compositions were adjusted to 290 to 300 mOsm/L and pH 7.4, respectively. […] To prepare one liter of 0.01 M PBS, there are needed the followings:
Corneal fluorescein staining was evaluated 10 minutes after topical application of 1 μL of 1% sodium fluorescein (Sigma-Aldrich, Japan) to mouse eyes, which were treated as described above, and examined under a light microscope (Leica Microsystems Inc., Deerfield, USA) and photographed with a digital camera (CAMEDIA, Olympus Optical Co. Ltd., Japan) fitted to the microscope.
In TABLES 2 and 3 below, X represents a ratio of an area which was subjected to a punctuate staining to a total area of a cornea.

[2] = tested on: corneal epithelium of DE mice; assay: Histopathologic study: corneal epithelial thickness in DE mice; type: in vivo, C57BL/6J mice
Method: as §1, §2, §3
Mice eyeballs were surgically excised, and fixed with neutral-buffered formalin (10%) and embedded in paraffin. Then, 5 μm thick histological sections were cut and stained with hematoxylin and eosin. […] Microphotometric measurement of the thickness was done by using OB-M, 1/100, micro, AX0001 (Olympus Optical Co. Ltd., Japan). The corneal epithelial thickness was measured to an accuracy of 10 μm.
In this EXAMPLE, there were used 6 to 8 corneas of each of the following groups of mice: (a) normal mice, (b) DE mice, (c) DE mice treated with 0.04 w/v % of ApoA1, and (d) DE mice treated with PBS.

[3] = DE mice, various concentrations

Substance: apolipoprotein A-1 [ApoA1]
- most effective concentration of ApoA1, corneal staining scores ([1]; 0.01, 0.04 or 0.1 w/v % ApoA1 tested, DE mice (FIG. 10)): 0.1 w/v %
- conclusion of corneal fluorescein staining experiments: effect on dry eye syndrome [1, 3]: significantly effective
- average corneal staining score, less than that of the PBS group ([1]; eye drops 0.04 w/v % ApoA1, 5 μl four times a day for five days, six DE mice, other eye PBS (FIG. 8)): about 25%
- effect on corneal epithelium erosion due to desiccation (grading scores and quantitative measurement) ([1]; eye drops 0.04 w/v % ApoA1, DE mice): protective effects
- quantitative measurement of fluorescein stained area (NIH ImageJ), average score less than that of the PBS group ([1]; eye drops 0.04 w/v % ApoA1, DE mice, data not shown): 20%
- most effective concentration of ApoA1, corneal epithelial thickness ([2]; 0.01, 0.04, 0.1 w/v % ApoA1 tested, DE mice (FIG. 15)): 0.1 w/v %
- thinning of the cell layers accompanied by detachment of the corneal epithelium ([2]; DE mice treated with 0.04 w/v % ApoA1 vs PBS (FIGS. 12 and 13)): significantly greater in the PBS-treated eyes compared with the ApoA1-treated eyes
- conclusion of corneal epithelial thickness experiments: restriction of thinning of corneal epithelium [2, 3]: extremely effective
